Target: T1, PAD4 (Protein arginine deiminase 4) (Homo sapiens, UniProt Q9UM07)
T1 construct: gene PADI4
Assay: colorimetric PAD4 enzyme assay, citrullination of BAEE
Type: biochemical

T1 sequence (Q9UM07 whole entry): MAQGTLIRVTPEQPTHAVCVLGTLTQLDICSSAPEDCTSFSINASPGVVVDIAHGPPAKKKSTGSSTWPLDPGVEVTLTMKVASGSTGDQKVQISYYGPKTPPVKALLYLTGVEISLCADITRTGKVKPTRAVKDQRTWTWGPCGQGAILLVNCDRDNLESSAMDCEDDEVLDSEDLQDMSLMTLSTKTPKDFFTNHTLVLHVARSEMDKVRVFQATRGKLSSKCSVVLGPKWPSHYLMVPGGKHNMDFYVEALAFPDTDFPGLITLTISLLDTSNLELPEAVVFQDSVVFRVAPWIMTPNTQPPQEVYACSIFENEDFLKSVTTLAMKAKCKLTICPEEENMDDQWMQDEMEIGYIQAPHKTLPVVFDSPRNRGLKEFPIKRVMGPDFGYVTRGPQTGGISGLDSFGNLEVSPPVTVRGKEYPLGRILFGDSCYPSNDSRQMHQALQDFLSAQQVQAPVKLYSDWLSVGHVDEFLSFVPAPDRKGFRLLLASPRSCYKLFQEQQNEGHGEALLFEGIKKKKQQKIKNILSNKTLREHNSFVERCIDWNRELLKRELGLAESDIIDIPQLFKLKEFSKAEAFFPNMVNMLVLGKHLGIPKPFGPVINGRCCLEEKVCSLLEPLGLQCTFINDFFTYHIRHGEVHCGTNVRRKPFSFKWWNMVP

## CN(C)c1ccc2cc(C(=O)N[C@@H](CCCNC(=N)CCl)C(=O)NCc3ccccc3)ccc2c1 [YW3-56]
  IC50: 4.1 ± 0.28 µM

Reference: publication PMC12655338, “Reversing the Warburg Effect: YW3-56 Induces Leukemia Differentiation via AKT-Mediated Glucose Metabolic Reprogramming” (Pharmaceuticals, 2025)
